From patent US4241184A, “Secondary alcohol dehydrogenase enzyme and use thereof” (priority 1979, dated 1980)
Each block holds one compound with its values, some of them ahead of it.

Legend:
[1] = test system: secondary alcohol dehydrogenase; experiment: Purified yeast secondary alcohol dehydrogenase: substrates, electron acceptors, inhibitors, stoichiometry; format: biochemical, Pichia sp. NRRL Y-11,328
Protocol: Large scale cultures of Pichia sp. NRRL Y-11,328 were grown with aeration at 30° C. in a 14-liter New Brunswick f fermentor in a mineral salt medium containing methanol (0.4%, v/v) as the sole carbon source. The cells (200 g., wet weight) were suspended in […] sodium phosphate buffer, pH 7.0, containing 1 mM dithiothreitol (buffer A), and crude extracts were prepared as described previously. To the crude extracts, 18 ml. of protamine sulfate solution [2% solution in 0.1 M tris (hydroxymethyl) aminomethane (tris) base] was added dropwise with continuous stirring. After standing for 30 min., the extracts were centrifuged at 20,000×g. for 60 min. The supernatant solution was fractionated with solid ammonium sulfate. Extracts were brought to 50% of saturation with respect to ammonium sulfate by addition of 313 g. of the salt per liter of extract. Precipitated proteins was removed by centrifugation, and 137 g. of ammonium sulfate was added per liter of the supernatant liquid to bring it to 70% of saturation. Material precipitating between 50 and 70% of saturation was collected by centrifugation and dissolved in buffer A. This preparation was dialyzed overnight against buffer A, and the dialyzed material was applied to a DEAE-cellulose column (5×40 cm) that had been equilibrated with buffer A. The sample was washed with 200 ml. of buffer A and eluted with 2 liters of buffer A that contained NaCl in a linear gradient running from a concentration of 0 to 0.5 M. Fractions of 15 ml. were collected. Fractions containing secondary alcohol dehydrogenase activity were pooled and were termed DEAE-cellulose eluate. The DEAE-cellulose eluate was concentrated by ammonium sulfate fractionation.
Secondary alcohol dehydrogenase activity was measured spectrophotometrically at 340 nm with a NAD^+ as an electron acceptor. The reaction mixture, in a total 3.0 ml., contained 50 mM phosphate buffer, pH 8.0, 5μ moles NAD^+, crude extracts, and subtrate. The reactions were started by addition of 100 μl of 0.1 M substrate and the rate of NAD^+ reduction was measured. Protein concentration was determined by the method of Lowry et al.
The substrate specificity of the purified secondary alcohol dehydrogenase was examined spectrophotometrically.

[2] = Oxidation of 2-butanol to 2-butanone by cell-free soluble extracts of C1-utilizing microbes; format: biochemical
Protocol: The clear supernatant contained the SADH activity. […] The reaction was started by the addition of substrate.
Catalytic activity was also assayed by fluorescence spectrophotometry.

[3] = test system: cell-free particulate fractions derived from the methylotrophic microorganisms; experiment: Conversion of C3-C6 n-alkanes to sec. alcohols by cell-free particulate fractions: inhibitors and electron donors; format: biochemical
Description: The conditions for preparing the cell suspensions or the cell-free particulate fractions from methane-grown methylotroph microorganisms is the same as described above. […] Tables XXV and XXVI show the conversion of C3 -C6 n-alkanes to the corresponding secondary alcohols using cell suspensions and cell-free particulate fractions, respectively, of methane-grown methylotroph microorganisms.

[4] = test system: P(40) particulate fraction of Methylosinus sp. (CRL-15, NRRL B-11,202); experiment: Effect of inhibitors on propylene epoxidation and methane hydroxylation by P(40) fraction; format: biochemical; details: inhibitor 10^-3 M
Protocol: The oxidation of methane and propylene by particulate [(P)40 and(P)80] fractions and soluble [S(80)] fraction was measured at 30° C. by estimating the production of methanol and propylene oxide, respectively. The reaction mixtures contained in 1.0 ml: 150 mM potassium phosphate buffer, pH 7.0 containing 5 mM MgCl2, 0.6 ml; 10 μmoles NADH, and cellular fraction.
Reaction mixtures were contained in 10 ml vials at 4° C. Vials were sealed with rubber caps. The gaseous phase in the vials was removed using vacuum and then was replaced with a gas mixture of methane or propylene and oxygen at a 1:1, v/v ratio. Oxidation of other gaseous n-alkanes and n-alkenes was examined as described above. For liquid substrates, 10 μl of substrate was used directly. Vials were then incubated at 30° C. on a rotary shaker at 200 RPM.
It has been reported that the oxidation of methane by cell suspensions of methane-utilizing bacteria was inhibited by various metal-binding or metal-chelating agents (Patel et al., J. Bacteriol. 126: 1017-1019 (1976)). […] (CRL-15, NRRL B-11,202) was examined.

- electron acceptor for the purified enzyme [1]: could not act as electron carrier
Structure (SMILES): C[n+]1c2ccccc2nc2ccccc21 [phenazine methosulfate]
- cofactor for oxidation of secondary alcohols in the cell-free system [2]: not effective

- electron acceptor for the purified enzyme [1]: could not act as electron carrier
Structure (SMILES): NC(=O)c1ccc[n+]([C@@H]2O[C@H](COP(=O)(O)OP(=O)(O)OC[C@H]3O[C@@H](n4cnc5c(N)ncnc54)[C@H](OP(=O)(O)O)[C@@H]3O)[C@@H](O)[C@H]2O)c1 [NADP]
- cofactor for oxidation of secondary alcohols in the cell-free system [2]: not effective

Structure (SMILES): Oc1cccc2cccnc12 [8-Hydroxyquinoline]
- inhibition of the conversion of the n-alkanes to the sec. alcohols [3]: inhibited
- % Inhibition, Methane-Hydroxylating Activity [4]: 80%
- % Inhibition, Propylene-Epoxidizing Activity [4]: 75%

Structure (SMILES): O=C1C(Cl)=CC(=Nc2ccc(O)cc2)C=C1Cl [dichlorophenol indophenol]
- electron acceptor for the purified enzyme [1]: could not act as electron carrier
- cofactor for oxidation of secondary alcohols in the cell-free system [2]: not effective

- inhibition of secondary alcohol dehydrogenase activity [1]: strongly inhibited
Structure (SMILES): N[C@@H](CCC(=O)N[C@@H](CS)C(=O)NCC(=O)O)C(=O)O [glutathione]
- cofactor for oxidation of secondary alcohols in the cell-free system [2]: not effective

Structure (SMILES): NC(=O)C1=CN([C@@H]2O[C@H](COP(=O)(O)OP(=O)(O)OC[C@H]3O[C@@H](n4cnc5c(N)ncnc54)[C@H](OP(=O)(O)O)[C@@H]3O)[C@@H](O)[C@H]2O)C=CC1 [NAD(P)H]
- cofactor for oxidation of secondary alcohols in the cell-free system [2]: not effective

Structure (SMILES): Cc1cc2nc3c(=O)[nH]c(=O)nc-3n(C[C@H](O)[C@H](O)[C@H](O)COP(=O)(O)OP(=O)(O)OC[C@H]3O[C@@H](n4cnc5c(N)ncnc54)[C@H](O)[C@@H]3O)c2cc1C [FAD, flavin adenine dinucleotide]
- electron acceptor for the purified enzyme [1]: could not act as electron carrier
- cofactor for oxidation of secondary alcohols in the cell-free system [2]: not effective

Structure (SMILES): NNC(N)=S [Thiosemicarbazide]
- inhibition of the conversion of the n-alkanes to the sec. alcohols [3]: inhibited
- % Inhibition, Methane-Hydroxylating Activity [4]: 100%
- % Inhibition, Propylene-Epoxidizing Activity [4]: 97%
